# Test results as given in EP0247482A2, “Hardened reagent coatings, and processes for the preparation thereof” (priority 1986, dated 1987).
# Tested on: casein
# Conditions: pH 7
# Procedure: A 10 % strength casein solution is prepared in water by adding sodium hydroxide solution. 0.1 g of tartrazine is added to 100 ml of solution as filter dyestuff. Before pouring, various samples of the solution of 3 % by weight of each of the compounds 22, 19, 20, 21, 24, 25, 30, 31, 37, 41, 44, 45, 50, 52, 53, 55 and 56, dissolved in water, are added at a pH of 7.
row,Structure (SMILES),"hardened filter foils, solubility in alkaline water after drying"
1,NC(=O)c1ccc[n+](C(=O)N2CCOCC2)c1 [Compound 19],no longer dissolve in alkaline water
2,O=C(N1CCOCC1)[n+]1cccc(S(=O)(=O)[O-])c1 [Compound 45],no longer dissolve in alkaline water
3,CCN(CC)C(=O)[n+]1ccc(CCS(=O)(=O)[O-])cc1 [Compound 50],no longer dissolve in alkaline water
4,Cc1ccc(N(C)C(=O)[n+]2ccc(CCS(=O)(=O)[O-])cc2)cc1 [Compound 52],no longer dissolve in alkaline water
5,O=C(N1CCCCC1)[n+]1ccc(CCS(=O)(=O)[O-])cc1 [Compound 53],no longer dissolve in alkaline water
6,O=C(N1CCOCC1)[n+]1ccc(CCS(=O)(=O)[O-])cc1 [Compound 55],no longer dissolve in alkaline water
7,O=C(N1CCOCC1)[n+]1cccc(CCS(=O)(=O)[O-])c1 [Compound 56],no longer dissolve in alkaline water
